These results are taken from article PMC3108470 (Journal of Medicinal Chemistry, 2011).

The target in assay [1] is ΔF508-CFTR (Homo sapiens, UniProt P13569, DEL508-508). Briefly: ΔF508-CFTR potentiator assay, HS-YFP fluorescence quenching. It counts as cell-based. The conditions noted are these: for activity on ΔF508-CFTR: inactive up to 20 μM; for nH (Hill coefficient): FRT cells, forskolin 20 μM, Hill fit.
For assay [2], the system named is guinea pig left atrium. Briefly: Negative inotropic activity in isolated left atrium driven at 1 Hz.
Assay [3] relates to guinea pig ileum longitudinal smooth muscle. Briefly: Relaxant activity on K+-depolarized.
Assay [4] has as its system guinea pig right atrium. The conditions noted are these: cited from earlier work; for intrinsic activity, chronotropic effect: at the highest concentration studied.
Assay [5] has as its system guinea pig left atrium. The conditions noted are these: at the highest concentration studied; cited from earlier work.

Each structure is given as a SMILES string.

Regarding `COC(=O)C1=C(C)NC(C)=C(C(=O)OC)C1c1c(-c2cc(OC)ccc2OC)nc2sc(C)cn12` [Compound 40], in assay [1], the “activity on ΔF508-CFTR” value is “inactive ^b”.
The same measure, in the same setting: to `CCc1cn2c(C3C(C(=O)OC)=C(C)NC(C)=C3C(=O)OC)c(-c3cc(OC)ccc3OC)nc2s1` [Compound 42] belongs “inactive ^b”; to `COC(=O)C1=C(C)NC(C)=C(C(=O)OC)C1c1c(-c2ccccc2OC)nc2sccn12` [Compound 35], “inactive ^b”.
In the case of `COC(=O)C1=C(C)NC(C)=C(C(=O)OC)C1c1c(Cl)nc2sc(Cl)cn12` [Compound 31], the “nH (Hill coefficient)” value in assay [1] was found to be 1.04. In assay [2], the “negative inotropic effect, times greater than that of nifedipine” value (shortened to “negative inotropic effect”) is listed as “about 2.6 times”.
On to `COC(=O)C1=C(C)NC(C)=C(C(=O)OC)C1c1c(Cl)nc2scc(C)n12` [Compound 33], for which the “nH (Hill coefficient)” value in assay [1] is recorded as 0.82. Besides, the “negative inotropic effect” value in assay [2] is recorded as “about 2.6 times”.
For `COC(=O)C1=C(C)NC(C)=C(C(=O)OC)C1c1c(-c2ccccc2OC(F)(F)F)nc2sccn12` [Compound 37], the “activity on ΔF508-CFTR” value in assay [1] is “inactive ^b”.
The same measure, in the same setting: the entry for `COC(=O)C1=C(C)NC(C)=C(C(=O)OC)C1c1c(-c2ccccc2)nc2n1CCS2` [Compound 23, Dimethyl 2,6-Dimethyl-4-(6-phenyl-2,3-dihydroimidazo[2,1-b]thiazol-5-yl)-1,4-dihydropyridine-3,5-dicarboxylate] is “inactive ^b”.
For `COC(=O)C1=C(C)NC(C)=C(C(=O)OC)C1c1c(C)nc2sc(Cl)cn12` [Compound 29], in assay [1], the “nH (Hill coefficient)” value is given as 1.55. Moreover, in assay [2], the “negative inotropic effect” value is “about 2.6 times”.
Consider `CCOC(=O)C1=C(C)NC(C)=C(C(=O)OCC)C1c1c(-c2ccc(Cl)c(Cl)c2Cl)nc2sccn12` [Compound 26, Diethyl 2,6-Dimethyl-4-(6-(2,3,4-trichlorophenyl)imidazo[2,1-b]thiazol-5-yl)-1,4-dihydropyridine-3,5-dicarboxylate], for which the “nH (Hill coefficient)” value in assay [1] turned out to be 0.44. Besides, the “GPILSM relaxant potency, times less potent than nifedipine” value (“GPILSM relaxant potency” for short) in assay [3] was “about 65 times”.
On to `C=CCOC(=O)C1=C(C)NC(C)=C(C(=O)OCC=C)C1c1c(-c2ccc(C(F)(F)F)cc2)nc2sc(C)c(C)n12` [Compound 19, Diallyl 4-(2,3-Dimethyl-6-(4-(trifluoromethyl)phenyl)imidazo[2,1-b]thiazol-5-yl)-2,6-dimethyl-1,4-dihydropyridine-3,5-dicarboxylate], for which, in assay [1], the “nH (Hill coefficient)” value turned out to be 1.14. Also, the “negative inotropic over chronotropic selectivity ratio” value in assay [2] (EC50 chronotropic / EC50 inotropic) is “about 33 fold”.
As for `COC(=O)C1=C(C)NC(C)=C(C(=O)OC)C1c1c(-c2cccc(OC)c2)nc2sccn12` [Compound 36], in assay [1], the “nH (Hill coefficient)” value turned out to be 1.5. For the same compound, the “GPILSM relaxant potency” value in assay [3] is given as “about 65 times”.
Turning to `C=CCOC(=O)C1=C(C)NC(C)=C(C(=O)OCC=C)C1c1c(-c2cc(OC)ccc2OC)nc2sccn12` [Compound 24, Diallyl 4-(6-(2,5-Dimethoxyphenyl)imidazo[2,1-b]thiazol-5-yl)-2,6-dimethyl-1,4-dihydropyridine-3,5-dicarboxylate], in assay [1], the “activity on ΔF508-CFTR” value was “inactive ^b”.
For the compound `COC(=O)C1=C(C)NC(C)=C(C(=O)OC)C1c1c(C(F)(F)F)nc2sccn12` [Compound 27], the “nH (Hill coefficient)” value in assay [1] is recorded as 1.89.
For the compound `COC(=O)C1=C(C)NC(C)=C(C(=O)OC)C1c1c(-c2ccc(OC)c(OC)c2)nc2sccn12` [Compound 43], the “activity on ΔF508-CFTR” value in assay [1] was “inactive ^b”.
Still for that read-out and setting: to `COC(=O)C1=C(C)NC(C)=C(C(=O)OC)C1c1c(-c2cc(OC)ccc2OC)nc2sc(Cl)cn12` [Compound 41] belongs “inactive ^b”.
With `COC(=O)C1=C(C)NC(C)=C(C(=O)OC)C1c1c(-c2cc(OC)c([N+](=O)[O-])cc2OC)nc2sc(Cl)cn12` [Compound 45], the “activity on ΔF508-CFTR” value in assay [1] is “inactive ^b”. The “GPILSM relaxant potency” value in assay [3] was “about 65 times”. The EC50 in assay [4] (read-out: EC50 of chronotropic negative activity, Probit analysis, ref RS1) was 18.5 µM.
On to `COC(=O)C1=C(C)NC(C)=C(C(=O)OC)C1c1c(Cl)nc2sc(C)c(C)n12` [Compound 34], for which the “nH (Hill coefficient)” value in assay [1] was 1.32.
Turning to `COC(=O)C1=C(C)NC(C)=C(C(=O)OC)C1c1c(C(F)(F)F)nc2sc(C)cn12` [Compound 28], the “nH (Hill coefficient)” value in assay [1] is listed as 0.88. In addition, in assay [3], the “GPILSM relaxant potency” value is on record as “about 65 times”. For the same compound, in assay [5], the “intrinsic activity, inotropic effect” value is recorded as “less than 50%”. Moreover, the “intrinsic activity, chronotropic effect” value in assay [4] is less than 40%.
With `CCOC(=O)C1=C(C)NC(C)=C(C(=O)OCC)C1c1c(-c2ccc(C(F)(F)F)cc2)nc2sccn12` [Compound 18, Diethyl 2,6-Dimethyl-4-(6-(4-(trifluoromethyl)phenyl)imidazo[2,1-b]thiazol-5-yl)-1,4-dihydropyridine-3,5-dicarboxylate], the “nH (Hill coefficient)” value in assay [1] is given as 1.69.
`COC(=O)C1=C(C)NC(C)=C(C(=O)OC)C1c1c(-c2cc(OC)c(OC)c(OC)c2)nc2sc(Cl)cn12` [Compound 44]: the “activity on ΔF508-CFTR” value in assay [1] is “inactive ^b”. The “intrinsic activity, inotropic effect” value in assay [5] is on record as “less than 50%”. Further, the “intrinsic activity, chronotropic effect” value in assay [4] was less than 40%.
On to `COC(=O)C1=C(C)NC(C)=C(C(=O)OC)C1c1c(-c2cccc(OC(F)(F)F)c2)nc2sccn12` [Compound 38], for which, in assay [1], the “nH (Hill coefficient)” value was 0.81. Moreover, the “GPILSM relaxant potency” value in assay [3] is “about 65 times”.
As for `C=CCOC(=O)C1=C(C)NC(C)=C(C(=O)OCC=C)C1/C=C/c1ccccc1OC` [Compound 50, reference compound], the “nH (Hill coefficient)” value in assay [1] was found to be 1.18.
`COC(=O)C1=C(C)NC(C)=C(C(=O)OC)C1c1c(-c2ccc(C(F)(F)F)cc2)nc2sccn12` [Compound 17, Dimethyl 2,6-Dimethyl-4-(6-(4-(trifluoromethyl)phenyl)imidazo[2,1-b]thiazol-5-yl)-1,4-dihydropyridine-3,5-dicarboxylate]: the “nH (Hill coefficient)” value in assay [1] was determined as 2.15. In addition, the “negative inotropic effect” value in assay [2] was “about 2.6 times”. For the same compound, the “GPILSM relaxant potency” value in assay [3] is listed as “about 3 times”.
For `C=CCOC(=O)C1=C(C)NC(C)=C(C(=O)OCC=C)C1c1ccc(C(C)(C)C)cc1` [Compound 49, reference compound], the “nH (Hill coefficient)” value in assay [1] was found to be 3.58.
For the compound `COC(=O)C1=C(C)NC(C)=C(C(=O)OC)C1c1ccccc1[N+](=O)[O-]` [nifedipine, reference compound], in assay [1], the “nH (Hill coefficient)” value is given as 2.58. Further, the “potency increase in nonvascular smooth muscle compared to aortic strips” value in assay [3] (GPILSM vs aortic strips) is on record as 6 times.
As to `CCOC(=O)C1=C(C)NC(C)=C(C(=O)OCC)C1c1c(-c2ccccc2)nc2sc(C)cn12` [Compound 22, Diethyl 2,6-Dimethyl-4-(2-methyl-6-phenylimidazo[2,1-b]thiazol-5-yl)-1,4-dihydropyridine-3,5-dicarboxylate], the “nH (Hill coefficient)” value in assay [1] is 0.93.
`COC(=O)C1=C(C)NC(C)=C(C(=O)OC)C1c1c(-c2ccc(OC(F)(F)F)cc2)nc2sccn12` [Compound 20, Dimethyl 2,6-Dimethyl-4-(6-(4-(trifluoromethoxy)phenyl)imidazo[2,1-b]thiazol-5-yl)-1,4-dihydropyridine-3,5-dicarboxylate]: the “nH (Hill coefficient)” value in assay [1] came out at 1.8. For the same compound, in assay [3], the “GPILSM relaxant potency” value is listed as “about 3 times”.
On the same counts, the results for `CCOC(=O)C1=C(C)NC(C)=C(C(=O)OCC)C1c1c(Cl)nc2sc(C)cn12` [Compound 25, Diethyl 4-(6-Chloro-2-methylimidazo[2,1-b]thiazol-5-yl)-2,6-dimethyl-1,4-dihydropyridine-3,5-dicarboxylate] are 0.86 and “about 65 times”.
On the same counts, the results for `COC(=O)C1=C(C)NC(C)=C(C(=O)OC)C1c1c(-c2cccc(C(F)(F)F)c2)nc2sccn12` [Compound 39] are 1.01 and “about 65 times”.
With `COC(=O)C1=C(C)NC(C)=C(C(=O)OC)C1c1c(-c2c(OC)ccc(OC)c2[N+](=O)[O-])nc2sccn12` [Compound 46], in assay [1], the “activity on ΔF508-CFTR” value was “inactive ^b”.
Consider `C=CCOC(=O)C1=C(C)NC(C)=C(C(=O)OCC=C)C1c1c(-c2ccc(OC(F)(F)F)cc2)nc2sccn12` [Compound 21, Diallyl 2,6-Dimethyl-4-(6-(4-(trifluoromethoxy)phenyl)imidazo[2,1-b]thiazol-5-yl)-1,4-dihydropyridine-3,5-dicarboxylate], for which the “nH (Hill coefficient)” value in assay [1] came to 1.09. Also, the “GPILSM relaxant potency” value in assay [3] is on record as “about 3 times”.
On the same counts, the results for `CCOC(=O)C1=C(C)NC(C)=C(C(=O)OCC)C1c1c(C(F)(F)F)nc2sccn12` [Compound 16, Diethyl 2,6-Dimethyl-4-(6-(trifluoromethyl)imidazo[2,1-b]thiazol-5-yl)-1,4-dihydropyridine-3,5-dicarboxylate] are 0.66 and “about 65 times”.
`COC(=O)C1=C(C)NC(C)=C(C(=O)OC)C1c1c(C)nc2sc(C)cn12` [Compound 30]: the “activity on ΔF508-CFTR” value in assay [1] is “inactive ^b”. Further, the “intrinsic activity, inotropic effect” value in assay [5] was “less than 50%”. Besides, in assay [4], the “intrinsic activity, chronotropic effect” value was less than 40%.
Turning to `COC(=O)C1=C(C)NC(C)=C(C(=O)OC)C1c1c(-c2cc(OC)c(OC)cc2[N+](=O)[O-])nc2sccn12` [Compound 47], the “activity on ΔF508-CFTR” value in assay [1] was “inactive ^b”.
Take `COC(=O)C1=C(C)NC(C)=C(C(=O)OC)C1c1c(Cl)nc2sc(C)cn12` [Compound 32]: the “activity on ΔF508-CFTR” value in assay [1] was “inactive ^b”.
For `CCOC(=O)C1=C(C)NC(C)=C(C(=O)OCC)C1c1cccc(Oc2ccccc2)c1` [Compound 48, reference compound], the “nH (Hill coefficient)” value in assay [1] is on record as 0.97.
